Values of other authors as cited in patent US12532880B2, “Cryopreservation of cell monolayers” (priority 2018, dated 2026).

Tests used:
[1] = test system: porcine corneal endothelium; conditions: endothelium cryopreserved in the presence of 2% CS
[2] = test system: intact human articular cartilage; conditions: chondroitin sulfate added to the vitrification solution

Substance: chondroitin sulfate [CS]
- Loss of viability in post-thaw culture [1]: 33%
- Cell recovery [2]: 75.4%
